Source: patent US7989420B2, “Smooth muscle relaxation” (New York Medical College, priority 2006, dated 2011)

Assays:
[1] = test system: bovine pulmonary arteries (BPA); assay: Heme content of BPA homogenates (QuantiChrom heme assay); assay type: cell-based; conditions: organ culture with 100 μM ALA and/or 100 μM Fe
Protocol: Heme was quantified in BPA homogenates using a QuantiChrom heme assay kit purchased from BioAssay Systems, and changes in absorbance were measured in a BIOTEK scanning microplate spectrophotometer. Briefly, segments were homogenized in 20 mM MOPS+sucrose buffer and diluted to approximately 5 mg protein/ml. Homogenates were centrifuged at 2000×g for 5 min, and 50 μl of supernatant obtained were assayed for their heme content based on the manufacture's instructions, employing measurements of changes in absorbance at 400 nm. The protein content of the supernatant was measured with Biorad protein assay kit, and tissue heme levels were reported as nanomoles/mg protein.

[2] = test system: bovine pulmonary arteries (BPA); assay: Protoporphyrin IX-associated tissue fluorescence in organ cultured BPA rings; assay type: cell-based; conditions: for BPA fluorescence: 100 μM ALA without or with 100 μM deferoxamine
Protocol: Organoid Culture Isolated Arteries for Heme Modulation. Intralobar BPA were isolated from slaughterhouse-derived bovine calf lungs, cleaned from surrounding tissue, and placed in 37° C. Dulbecco's Modified Eagle Medium (DMEM) containing 10% fetal bovine serum, penicillin, streptomycin, and fungizone (complete media). The arteries were isolated and cut into rings ˜2 mm in diameter and width, and the endothelium was removed by gentle rubbing of the lumen. Various compounds (i.e. ALA, FeSO4(Fe), deferoxamine) were added as described in the Results to various experimental groups, and these arteries were organ cultured overnight for 24 h in complete media in a 37° C.-5% CO2 incubator. Preliminary experiments on the time course for detection protoporphyrin IX accumulation and the effects of organ culture with doses of ALA in the 10-100 μM concentration range on contractile function, and minimizing the duration of organ culture were considerations that contributed to selecting the 24 h culture period used in this study.
(§1) Determination Changes in Protoporphyrin 1× and Heme Levels. Methods for the detection of protoporphyrin IX tissue fluorescence developed for the detection in cancerous cells with tissue depths of up to several millimeters (27) were adapted for detecting changes in the endogenous levels of protoporphyrin IX in BPA rings which were organ cultured with ALA. When excited with light in the regions of 505 and 540 nm, protoporphyrin IX has an emission in the region of 635 nm. […] Increases in protoporphyrin IX were measured using an excitation wavelength of 528±20 nm and emission of 620±40 nm in intact vessels. Ring segments of approximately equal size (˜4 mm in diameter and length) were centered on the bottom of the ˜6 mm diameter wells of a 96 well microplate with 200 μl of Krebs containing with 10 mM Hepes buffer (pH 7.4), and the fluorescence was measured from the bottom surface of the plate using BIOTEK fluorescent microplate reader (Model FLx800i). Data are reported in the arbitrary fluorescence units measured (AU), after subtraction of the low levels of background fluorescence observed in the absence of BPA.

[3] = humans, factor which limited the doses of ALA, reference (13); cited from earlier work
bovine bronchi [4] = assay: Force generation to acetylcholine in organ cultured bovine bronchi; assay type: cell-based; conditions: organ culture with 0.1 mM ALA for 24 hrs vs absence of ALA
Protocol: Studies on the Regulation of Contractile Function. Following the overnight incubation, arterial rings were mounted on wire hooks attached to Grass (FT03) force displacement transducers for measurement of changes in isometric force. Tension was adjusted to 5 g, which is the optimal passive force for maximal contraction. Changes in force were recorded on a Grass polygraph (model 7), while vessels were incubated in 10-ml baths (Metro Scientific), which were individually thermostated (37° C.) in Krebs buffer gassed with 21% O2-5% CO2 (balance N2) in the absence of compounds used to modulate BPA protoporphyrin IX levels. Arteries were incubated for 1 h during which passive tension was adjusted to maintain 5 grams. […] The effects of ODQ on relaxation to NO was determined by first contracting organ cultured control and ODQ-treated BPA with 1 μM 5-HT (after the initial exposure to increasing concentrations of 5-HT and a 30 min equilibration in Krebs).
Bovine bronchi were isolated from the same lungs used for pulmonary arteries, and studied for changes in protoporphyrin IX fluorescence and force under the same conditions as bovine pulmonary arteries described above. Superoxide was detected by the chemiluminescence produced by 5 μM lucigenin, which was detected by photon counting in a scintillation counter.

bovine bronchi [5] = assay: Protoporphyrin IX fluorescence in organ cultured bovine bronchi; assay type: cell-based; conditions: organ culture with 0.1 mM ALA
From the text: as §1
Bovine bronchi were isolated from the same lungs used for pulmonary arteries, and studied for changes in protoporphyrin IX fluorescence and force under the same conditions as bovine pulmonary arteries described above. […]

[6] = test system: VASP serine-239 phosphorylation (cGMP-dependent protein kinase activation); assay: Western blot of VASP serine-239 phosphorylation in BPA; assay type: cell-based, bovine; conditions: organ culture with 100 μM ALA
Protocol: Rings from studies on contractile function were snap-frozen in liquid nitrogen, crushed and homogenized in lysis buffer (50 mM Tris-HCl, pH 8.0, 150 mM NaCl, 1 mM EDTA, 1% Triton X-100, 0.5% sodium deoxycholate, 0.1% sodium dodecyl sulfate, 1% of a protease inhibitor cocktail (Sigma) and 1% of a phosphatase inhibitor cocktail (Sigma). The protease inhibitor cocktail included 4-(2-aminoethyl)benzenesulfonyl floride hydrocholride, aprotinin, bestatin hydrochloride, N-(trans-epoxsuccinyl)-L-leucine-4-guanidinobutylamide, leupeptine hemisulfate, pepstatin and the phosphatase inhibitor cocktail included sodium orthovandate, sodium molybdate, sodium tartarate, and imidazole. Protein concentration was determined and 30 μg of protein samples were prepared in electrophoresis sample buffer containing 3% SDS and 3% β-mercaptoethanol and were separated using a 12% gel SDS-PAGE electrophoresis. Membranes were blocked for 1 h in TBST-5% milk and incubated overnight with phospho-VASP antibodies (diluted 1:1000). Membranes were exposed to a secondary horse radish peroxidase linked antibody and visualized with an ECL kit (Amersham). The membranes were subsequently exposed to X-OMAT autoradiography paper (Kodak). Membranes were stripped with TRIS-HCl buffer with 100 mM β-mercaptoethanol at 50° C. for 30 min. Membranes were subsequently washed, blocked and detected for total VASP. Each measurement of phosphorylated VASP was normalized to the total level of VASP, and data are reported as the percent of the levels of phosphorylated VASP seen in control arteries not exposed to agents which modulate the activity of sGC. Expression of sGC was detected with β-sGC subunit antibodies (diluted 1:2000), employing anti-rabbit secondary antibodies, and a protocol where membranes were blocked for 2 h. After analyzing for sGC protein expression, blots were stripped and re-probed for the detection of α-actin protein levels, which were used for normalization of data for statistical analysis based on protein loading.

Structure (SMILES): NCC(=O)CCC(=O)O [ALA, δ-aminolevulinic acid]
- BPA heme levels [1]: did not reach statistical significance
- fluorescence potentially originating from protoporphyrin IX ([2]; 10 μM ALA, 24 h organ culture): did not cause a detectable increase in fluorescence
- increase in fluorescence over the background fluorescence of BPA ([2]; 50 μM and 100 μM ALA, 24 h organ culture): up to 2 fold
- BPA fluorescence ([2]; after 8 h of organ culture): 1015±79 AU
- BPA fluorescence ([2]; after 24 h of organ culture): 1658±122 AU
- concentration of protoporphyrin IX solution producing similar fluorescence ([2]; increase in BPA fluorescence caused by 100 μM ALA): ~3 µM
- tissue fluorescence potentially originating from protoporphyrin IX ([2]; organ culture with 100 μM ALA, after 16 and 24 h of incubation): increase in tissue fluorescence
- systemic and pulmonary artery pressure [3]: reduction in systemic and pulmonary artery pressure
- force generation to 10 μM acetylcholine (ACh) (bovine bronchi [4]): inhibits (relaxes) force generation
- protoporphyrin IX fluorescence (bovine bronchi [5]): time-dependent increase in protoporphyrin IX fluorescence
- VASP serine-239 phosphorylation [6]: increase in VASP phosphorylation
